Numbers after ± are expanded uncertainties.
Assay: activity coefficient (dimensionless); of the first substance listed, at infinite dilution; xn = mol fraction of the nth substance listed
Settings: Liquid, Chromatography, x1 = 0

Row | SMILES | activity coefficient (318.15 K) | activity coefficient (328.15 K) | activity coefficient (338.15 K) | activity coefficient (348.15 K) | activity coefficient (358.15 K) | activity coefficient (368.15 K)
1 | O [water] + CCCCCCn1cc[n+](C)c1.N#C[B-](C#N)(C#N)C#N | 2.05 ± 0.09 | 1.87 ± 0.08 | 1.7 ± 0.07 | 1.55 ± 0.06 | 1.42 ± 0.05 | 1.33 ± 0.05
2 | c1ccccc1 [benzene] + CCCCCCn1cc[n+](C)c1.N#C[B-](C#N)(C#N)C#N | 0.733 ± 0.029 | 0.743 ± 0.029 | 0.758 ± 0.029 | 0.773 ± 0.028 | 0.783 ± 0.028 | 0.8 ± 0.028
3 | C1CCOC1 [tetrahydrofuran] + CCCCCCn1cc[n+](C)c1.N#C[B-](C#N)(C#N)C#N | 0.453 ± 0.033 | 0.47 ± 0.033 | 0.485 ± 0.033 | 0.501 ± 0.032 | 0.513 ± 0.032 | 0.527 ± 0.032
4 | C=CCCCCCCCC [1-decene] + CCCCCCn1cc[n+](C)c1.N#C[B-](C#N)(C#N)C#N | 21.5 ± 1 | 20.5 ± 0.9 | 19.3 ± 0.9 | 18.5 ± 0.9 | 17.6 ± 0.8 | 16.9 ± 0.8
5 | CC(C)O [propan-2-ol] + CCCCCCn1cc[n+](C)c1.N#C[B-](C#N)(C#N)C#N | 1.2 ± 0.04 | 1.11 ± 0.03 | 1.03 ± 0.03 | 0.961 ± 0.026 | 0.902 ± 0.026 | 0.852 ± 0.027
6 | CC(C)OC(C)C [diisopropyl ether] + CCCCCCn1cc[n+](C)c1.N#C[B-](C#N)(C#N)C#N | 3.68 ± 0.17 | 3.71 ± 0.17 | 3.75 ± 0.17 | 3.8 ± 0.17 | 3.82 ± 0.17 | 3.87 ± 0.18
7 | CC(C)CO [2-methyl-1-propanol] + CCCCCCn1cc[n+](C)c1.N#C[B-](C#N)(C#N)C#N | 1.44 ± 0.05 | 1.31 ± 0.05 | 1.2 ± 0.1 | 1.11 ± 0.03 | 1.04 ± 0.03 | 0.977 ± 0.025
8 | CCCC=O [butanal] + CCCCCCn1cc[n+](C)c1.N#C[B-](C#N)(C#N)C#N | 0.512 ± 0.032 | 0.523 ± 0.032 | 0.539 ± 0.032 | 0.554 ± 0.032 | 0.564 ± 0.032 | 0.579 ± 0.031
9 | C=CCCCCCC [oct-1-ene] + CCCCCCn1cc[n+](C)c1.N#C[B-](C#N)(C#N)C#N | 11.7 ± 0.5 | 11.1 ± 0.5 | 10.7 ± 0.5 | 10.3 ± 0.5 | 9.91 ± 0.46 | 9.64 ± 0.44
10 | Cc1cccc(C)c1 [1,3-dimethylbenzene] + CCCCCCn1cc[n+](C)c1.N#C[B-](C#N)(C#N)C#N | 1.36 ± 0.05 | 1.39 ± 0.05 | 1.42 ± 0.05 | 1.44 ± 0.05 | 1.47 ± 0.06 | 1.5 ± 0.06
11 | CCC(C)(C)C [2,2-dimethylbutane] + CCCCCCn1cc[n+](C)c1.N#C[B-](C#N)(C#N)C#N | 10.5 ± 0.5 | 9.96 ± 0.46 | 9.52 ± 0.44 | 9.24 ± 0.42 | 8.92 ± 0.41 | 8.69 ± 0.4
12 | C#CCCCCCC [1-octyne] + CCCCCCn1cc[n+](C)c1.N#C[B-](C#N)(C#N)C#N | 3.99 ± 0.18 | 3.97 ± 0.18 | 3.96 ± 0.18 | 3.98 ± 0.18 | 3.97 ± 0.18 | 3.99 ± 0.18
13 | CCCOCCC [dipropyl ether] + CCCCCCn1cc[n+](C)c1.N#C[B-](C#N)(C#N)C#N | 3.82 ± 0.17 | 3.77 ± 0.17 | 3.73 ± 0.17 | 3.74 ± 0.17 | 3.72 ± 0.17 | 3.73 ± 0.17
14 | CO [methanol] + CCCCCCn1cc[n+](C)c1.N#C[B-](C#N)(C#N)C#N | 0.837 ± 0.027 | 0.786 ± 0.028 | 0.745 ± 0.029 | 0.704 ± 0.029 | 0.668 ± 0.03 | 0.633 ± 0.031
15 | C1CCCC1 [cyclopentane] + CCCCCCn1cc[n+](C)c1.N#C[B-](C#N)(C#N)C#N | 4.65 ± 0.21 | 4.45 ± 0.2 | 4.28 ± 0.2 | 4.14 ± 0.19 | 4.02 ± 0.18 | 3.93 ± 0.18
16 | CCOC(C)=O [ethyl acetate] + CCCCCCn1cc[n+](C)c1.N#C[B-](C#N)(C#N)C#N | 0.664 ± 0.03 | 0.684 ± 0.03 | 0.701 ± 0.029 | 0.715 ± 0.029 | 0.733 ± 0.029 | 0.751 ± 0.029
17 | CCC[N+](=O)[O-] [1-nitropropane] + CCCCCCn1cc[n+](C)c1.N#C[B-](C#N)(C#N)C#N | – | 0.497 ± 0.033 | 0.503 ± 0.032 | 0.508 ± 0.032 | 0.511 ± 0.032 | 0.518 ± 0.032

Source: the NIST ThermoML archive (doi:10.1016/j.jct.2011.11.025)
